Assay results taken from patent US11866692B2, “Fermentation fungal substance of astragalus membranaceus paecilomyces cicadae and its use” (BinZhou Medical University, priority 2019, dated 2024).

Tested on: rats with hyperuricemia
Test: Efficacy test in potassium oxonate-induced hyperuricemia rats (serum UA, BUN, CRE, TG)
Format: in vivo, Sprague Dawley (SD) rats
Settings: gavage twice each day for 14 days, 300 mg·kg−1 (benzbromarone 20 mg·kg−1), serum 4 h after last administration
Procedure: SD rats were randomly divided into normal group, hyperuricemia (HUA) model group, positive medicine control group, Astragalus membranaceus group and fungal substance A group based on body mass, with 8 rats in each group. They were used in experiments after one week of adaptive feeding in an animal room. All groups were fed with normal feed. In addition, the normal group was treated with distilled water by gavage. Other groups were treated with 300 mg·kg^−1 of potassium oxonate by gavage each day for modeling. After 1 hour, the positive medicine control group was treated with 20 mg·kg^−1 of benzbromarone by gavage, the Astragalus membranaceus group was treated with 300 mg·kg^−1 of an Astragalus membranaceus powder solution by gavage, and the fungal substance A group was treated with 300 mg·kg^−1 of a fungal substance A solution by gavage. The treatment was performed twice each day for 14 consecutive days, and the dosage was 10 mL·kg^−1. Four hours after administration on the last day, blood samples were taken from the orbital venous plexus of the rats. The blood samples were stored at 4° C. overnight, and then centrifuged to obtain serum, which was for determination of biochemical indexes. After routine calibration and quality control, the contents of uric acid (UA), urea nitrogen (BUN), creatinine (CRE) and triglyceride (TG) in serum were determined by an automatic biochemical analyzer. All test results are expressed in the form of “mean±standard deviation”. Excel and software SPSS17.0 were utilized for calculation and statistics. After all data were tested for normal distribution and homogeneity of variance, single factor analysis of variance was performed. The difference between the two groups was tested by t-test. When P<0.05, the difference was considered to be statistically significant.

Compound: CCc1oc2ccccc2c1C(=O)c1cc(Br)c(O)c(Br)c1 [benzbromarone]
- Serum UA level compared with the model group (FIG. 1): significantly reduced
- Serum CRE level compared with the model group (FIG. 3): very significantly reduced
- Serum TG level compared with the model group (FIG. 4): significantly reduced
